Patent US6914045B2, “Glycopeptide antibiotics” (Wyeth Holdings Corporation, priority 2001, dated 2005)
Converted amounts (≈) assume the structure as drawn.

How the values were obtained:
Assay in all cases: in vitro antibacterial evaluation, MIC by broth dilution
Assay type in all cases: cell-based
Enterococcus sp. = conditions: broth dilution, 18 hours at 35° C.; for MIC Enterococcus faecalis (ATCC 29212): strain ATCC 29212; for MIC Enterococcus faecalis (GC 2242): strain GC 2242; for MIC Enterococcus faecium (GC 2243): strain GC 2243; for MIC Enterococcus faecalis (GC 2691): strain GC 2691; for MIC Enterococcus faecalis (GC 3059): strain GC 3059; for MIC Enterococcus faecalis (GC 4552): strain GC 4552; for MIC Enterococcus faecalis (GC 4553): strain GC 4553; for MIC Enterococcus faecalis (GC 4554): strain GC 4554; for MIC Enterococcus faecium (GC 4556): strain GC 4556; for MIC Enterococcus faecium (GC 4557): strain GC 4557; for MIC Enterococcus avium (GC 4558): strain GC 4558; for MIC Enterococcus faecalis (GC 6189): strain GC 6189
In short: (§1)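 Following National Committee for Clinical Laboratory Standards recommendations (M7-A2), susceptibility was measured by dilution in Muller-Hinton II […]. Bacteria were seeded at 5×10^5 CFU/mL against compound concentrations from 64 down to 0.06 μg/mL.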

Escherichia coli = tested on: Escherichia coli
In short: as §1

Staphylococcus sp. = conditions: broth dilution, 18 hours at 35° C.; for MIC Staphylococcus aureus (GC 1131): strain GC 1131
In short: as §1

Streptococcus sp. = conditions: broth dilution, 18 hours at 35° C.; for MIC Streptococcus pneumoniae (ATCC 6301): strain ATCC 6301; for MIC Streptococcus pneumoniae (GC 1894): strain GC 1894; for MIC Streptococcus pyogenes (GC 4563): strain GC 4563; for MIC Streptococcus agalactiae (GC 4564): strain GC 4564; for MIC Streptococcus pneumoniae (GC 4565): strain GC 4565
In short: as §1

- MIC Enterococcus faecalis (ATCC 29212) (Enterococcus sp.; inoculum 5×10^5 CFU/mL): 32 µg/mL (≈ 21.7 µM)
- MIC Enterococcus faecalis (GC 2242) (Enterococcus sp.; inoculum 5×10^5 CFU/mL): 32 µg/mL (≈ 21.7 µM)
- MIC Enterococcus faecium (GC 2243) (Enterococcus sp.; inoculum 5×10^5 CFU/mL): 32 µg/mL (≈ 21.7 µM)
- MIC Enterococcus faecalis (GC 2691) (Enterococcus sp.; inoculum 5×10^5 CFU/mL): 32 µg/mL (≈ 21.7 µM)
- MIC Enterococcus faecalis (GC 3059) (Enterococcus sp.; inoculum 5×10^5 CFU/mL): 32 µg/mL (≈ 21.7 µM)
- MIC Enterococcus faecalis (GC 4552) (Enterococcus sp.; inoculum 5×10^5 CFU/mL): 32 µg/mL (≈ 21.7 µM)
- MIC Enterococcus faecalis (GC 4553) (Enterococcus sp.; inoculum 5×10^5 CFU/mL): 32 µg/mL (≈ 21.7 µM)
- MIC Enterococcus faecalis (GC 4554) (Enterococcus sp.; inoculum 5×10^5 CFU/mL): 32 µg/mL (≈ 21.7 µM)
- MIC Enterococcus faecium (GC 4556) (Enterococcus sp.; inoculum 5×10^5 CFU/mL): 32 µg/mL (≈ 21.7 µM)
- MIC Enterococcus faecium (GC 4557) (Enterococcus sp.; inoculum 5×10^5 CFU/mL): 8 µg/mL (≈ 5.43 µM)
- MIC Enterococcus avium (GC 4558) (Enterococcus sp.; inoculum 5×10^5 CFU/mL): 32 µg/mL (≈ 21.7 µM)
- MIC Enterococcus faecalis (GC 6189) (Enterococcus sp.; inoculum 5×10^5 CFU/mL): 32 µg/mL (≈ 21.7 µM)
- MIC Enterococcus faecalis (ATCC 29212) (Enterococcus sp.): 32 µg/mL (≈ 21.7 µM)
- MIC Enterococcus faecalis (GC 2242) (Enterococcus sp.): 32 µg/mL (≈ 21.7 µM)
- MIC Enterococcus faecium (GC 2243) (Enterococcus sp.): 32 µg/mL (≈ 21.7 µM)
- MIC Enterococcus faecalis (GC 2691) (Enterococcus sp.): 32 µg/mL (≈ 21.7 µM)
- MIC Enterococcus faecalis (GC 3059) (Enterococcus sp.): 32 µg/mL (≈ 21.7 µM)
- MIC Enterococcus faecalis (GC 4552) (Enterococcus sp.): 32 µg/mL (≈ 21.7 µM)
- MIC Enterococcus faecalis (GC 4553) (Enterococcus sp.): 32 µg/mL (≈ 21.7 µM)
- MIC Enterococcus faecalis (GC 4554) (Enterococcus sp.): 32 µg/mL (≈ 21.7 µM)
- MIC Enterococcus faecium (GC 4556) (Enterococcus sp.): 32 µg/mL (≈ 21.7 µM)
- MIC Enterococcus faecium (GC 4557) (Enterococcus sp.): 8 µg/mL (≈ 5.43 µM)
- MIC Enterococcus avium (GC 4558) (Enterococcus sp.): 32 µg/mL (≈ 21.7 µM)
- MIC Enterococcus faecalis (GC 6189) (Enterococcus sp.): 32 µg/mL (≈ 21.7 µM)
- MIC Escherichia coli (ATCC 25922) (Escherichia coli; strain ATCC 25922, 18 hours at 35° C.): >128 µg/mL
- MIC Escherichia coli (GC 4559) (Escherichia coli; strain GC 4559, 18 hours at 35° C.): >128 µg/mL
- MIC Escherichia coli (GC 4560) (Escherichia coli; strain GC 4560, 18 hours at 35° C.): 8 µg/mL (≈ 5.43 µM)
- MIC Staphylococcus aureus (GC 1131) (Staphylococcus sp.; inoculum 5×10^5 CFU/mL): 16 µg/mL (≈ 10.9 µM)
- MIC Staphylococcus aureus (ATCC 29213) (Staphylococcus sp.; strain ATCC 29213): 16 µg/mL (≈ 10.9 µM)
- MIC Staphylococcus aureus (GC 1131) (Staphylococcus sp.): 16 µg/mL (≈ 10.9 µM)
- MIC Staphylococcus aureus (GC 3051) (Staphylococcus sp.; strain GC 3051): 16 µg/mL (≈ 10.9 µM)
- MIC Staphylococcus aureus (GC 3053) (Staphylococcus sp.; strain GC 3053): 16 µg/mL (≈ 10.9 µM)
- MIC Staphylococcus aureus (GC 4541) (Staphylococcus sp.; strain GC 4541): 8 µg/mL (≈ 5.43 µM)
- MIC Staphylococcus aureus (GC 4542) (Staphylococcus sp.; strain GC 4542): 16 µg/mL (≈ 10.9 µM)
- MIC Staphylococcus aureus-SMITH (GC 4543) (Staphylococcus sp.; strain GC 4543): 16 µg/mL (≈ 10.9 µM)
- MIC Staphylococcus aureus (GC 4544) (Staphylococcus sp.; strain GC 4544): 16 µg/mL (≈ 10.9 µM)
- MIC Staphylococcus aureus (GC 4545) (Staphylococcus sp.; strain GC 4545): 16 µg/mL (≈ 10.9 µM)
- MIC Coagulase Negative Staphylococcus (GC 4547) (Staphylococcus sp.; strain GC 4547): 8 µg/mL (≈ 5.43 µM)
- MIC Coagulase Negative Staphylococcus (GC 4548) (Staphylococcus sp.; strain GC 4548): 8 µg/mL (≈ 5.43 µM)
- MIC Coagulase Negative Staphylococcus (GC 4549) (Staphylococcus sp.; strain GC 4549): 8 µg/mL (≈ 5.43 µM)
- MIC Coagulase Negative Staphylococcus (GC 4551) (Staphylococcus sp.; strain GC 4551): 16 µg/mL (≈ 10.9 µM)
- MIC Coagulase Negative Staphylococcus (GC 6257) (Staphylococcus sp.; strain GC 6257): 8 µg/mL (≈ 5.43 µM)
- MIC Streptococcus pneumoniae (ATCC 6301) (Streptococcus sp.; inoculum 5×10^5 CFU/mL): 1 µg/mL (≈ 0.679 µM)
- MIC Streptococcus pneumoniae (GC 1894) (Streptococcus sp.; inoculum 5×10^5 CFU/mL): 0.25 µg/mL (≈ 0.17 µM)
- MIC Streptococcus pyogenes (GC 4563) (Streptococcus sp.; inoculum 5×10^5 CFU/mL): 1 µg/mL (≈ 0.679 µM)
- MIC Streptococcus agalactiae (GC 4564) (Streptococcus sp.; inoculum 5×10^5 CFU/mL): 2 µg/mL (≈ 1.36 µM)
- MIC Streptococcus pneumoniae (GC 4565) (Streptococcus sp.; inoculum 5×10^5 CFU/mL): 1 µg/mL (≈ 0.679 µM)
- MIC Streptococcus pneumoniae (ATCC 6301) (Streptococcus sp.): 1 µg/mL (≈ 0.679 µM)
- MIC Streptococcus pneumoniae (GC 1894) (Streptococcus sp.): 0.25 µg/mL (≈ 0.17 µM)
- MIC Streptococcus pyogenes (GC 4563) (Streptococcus sp.): 1 µg/mL (≈ 0.679 µM)
- MIC Streptococcus agalactiae (GC 4564) (Streptococcus sp.): 2 µg/mL (≈ 1.36 µM)
- MIC Streptococcus pneumoniae (GC 4565) (Streptococcus sp.): 1 µg/mL (≈ 0.679 µM)
SMILES: CCOc1cc(C2OCC3OC(OC4C(CO)OC(Oc5ccc(CC6NC(=O)C(C(C)c7ccccc7)NC(=O)CNC(=O)C(CO)NC(=O)C(C(O)C7CNC(=N)N7C7OC(CO)C(O)C(O)C7O)NC(=O)C(C(O)C7CNC(=N)N7)NC6=O)cc5)C(O)C4O)C(O)C(O)C3O2)ccc1[N+](=O)[O-] (centres unmarked) [Example 167]
- MIC Staphylococcus haemolyticus (GC 4546) (Staphylococcus sp.; strain GC 4546): 16 µg/mL (≈ 10.9 µM)
